Assay results published in patent publication US20230058189A1, “QUINOLIN-4-ONE AND 4(1H)-CINNOLINONE COMPOUNDS AND METHODS OF USING SAME” (Frequency Therapeutics, Inc., priority 2019, published 2023).

Test system: Lgr5+ cells (cochlear stem cells)
Test: Lgr5+ assay: expansion of Lgr5-positive cochlear cells in 3D culture
Type: cell-based, mouse
Conditions: for % of Lgr5+ Positive Cells / Potency (Lgr5+ activity): 10 days culture with EGF, bFGF, IGF1, approximate values; for Potency (Lgr5+ activity): effective concentration for Lgr5+ expansion; for Lgr5 GFP+ progenitor cell proliferation (Lgr5 positive cell count) / enrichment of Lgr5 GFP+ cochlear progenitor cells (percent of Lgr5 positive cells): in a background of growth factors, compared to CHIR-99021 and its combinations (figures)
Source text: “Stem Cell Proliferation Assay” as used herein is an assay to determine the capacity for agent(s) to induce the creation of stem cells from a starting cell population. In an exemplary Stem Cell Proliferation Assay, the number of cells for an initial cell population is harvested from a Lgr5-GFP mouse such as a B6.129P2-Lgr5tm1(cre/ERT2)Cle/J mouse (also known as Lgr5-EGFP-IRES-creERT2 or Lgr5-GFP mouse, Jackson Lab Stock No: 008875) between the age of 3 to 7 days, by isolating the organ of Corti sensory epithelium and dissociating the epithelium into single cells. Approximately 5000 cells are entrapped in 40 μl of culture substrate (for example, Matrigel (Corning, Growth Factor Reduced)) and placed at the center of wells in a 24-well plate with 500 μl of an appropriate culture media, growth factors and agent being tested. Appropriate culture media and growth factors include Advanced DMEM/F12 with media supplements (1×N2, 1×B27, 2 mM Glutamax, 10 mM HEPES, 1 mM N-acetylcysteine, and 100 U/ml penicillin/100 μg/ml streptomycin) and growth factors (50 ng/ml EGF, 50 ng/ml bFGF, and 50 ng/ml IGF-1) as well as the agent(s) being assessed are added into each well. Cells are cultured for 10 days in a standard cell culture incubator at 37° C. and 5% CO2, with media change every 2 days. The number of Lgr5^+ cells is quantified by counting the number of cells identified as Lgr5+ in an in vitro Lgr5 activity assay (i.e., an assay mearing in vitro Lgr5 activity). The fraction of cells that are Lgr5^+ is quantified by dividing the number of cells identified as Lgr5^+ in a cell population by the total number of cells present in the cell population. The average Lgr5^+ activity of a population is quantified by measuring the average mRNA expression level of Lgr5 of the population normalized using suitable and unregulated references or housekeeping genes (e.g., Hprt). The number of hair cells in a population may be measured by staining with hair cell marker (e.g., MyosinVIIa), or using an endogenous reporter of hair cell genes (e.g., Pou4f3-GFP, Atoh1-nGFP) and analyzing using flow cytometry. The fraction of cells that are hair cells is quantified by dividing the number of cells identified as hair cells in a cell population by the total number of cells present in the cell population. Lgr5 activity can be measured by qPCR.
The compounds of the present disclosure were used in Lgr5-EGFP-IRES-Cre-ER mice (Barker et al., 2007) to analyze the effects of small molecules on cochlear stem cell expansion.
Isolation of stem cells from the inner ear: All animal studies were conducted under an approved institutional protocol according to National Institutes of Health guidelines. For experiments with neonatal mice (postnatal days 1-3), the cochleae were dissected in Hank's Balanced Salt Solution (HBSS) and the organs of Corti were separated from the stria vascularis and the modiolus. The organs of Corti were then treated with Cell Recovery Solution (Corning) for 1 hour to separate cochlear epithelium from the underlying mesenchyme. Epithelia were then collected and treated with TrypLE (Life Technologies) for 15-20 minutes at 37° C. Single cells obtained by mechanical trituration were filtered (40 μm) and suspended in Matrigel® (Corning) for 3D culture.
Cells were cultured in a 1:1 mixture of DMEM and F12, supplemented with Glutamax (GIBCO), N2, B27 (Invitrogen), EGF (50 ng/ml; Chemicon), bFGF (50 ng/ml; Chemicon), IGF1 (50 ng/ml; Chemicon) and the composition provided herein. Medium was changed every other day.
Lgr5-positive cells were quantified after 10 days (D10) in culture in multiple conditions. Cell colonies were dissociated into single cells using TrypLE (Gibco). The cells were then stained with propidium iodide (P1) and were analyzed using a flow cytometer for Lgr5-GFP expression. The number of GFP-positive cells and the percentage of GFP-positive cells were quantified. […]

Structure (SMILES): CCn1cc(C(=O)O)c(=O)c2c(N)c(F)c(N[C@@H]3C[C@@H]3c3ccccc3)cc21 (relative stereo) [Compound I-23]
- % of Lgr5+ Positive Cells: 14%
- Potency (Lgr5+ activity): 2.2 µM

Structure (SMILES): CCn1cc(C(=O)O)c(=O)c2c(N)c(F)c(N3CCC(N[C@@H]4C[C@H]4c4ccccc4)CC3)cc21 (relative stereo) [Compound I-26]
- % of Lgr5+ Positive Cells: <5%
- Potency (Lgr5+ activity): >10 µM

Structure (SMILES): CCn1cc(C(=O)O)c(=O)c2c(N)c(F)c(N[C@H]3CC[C@H](N[C@@H]4C[C@H]4c4ccccc4)CC3)cc21 (relative stereo) [Compound I-27]
- % of Lgr5+ Positive Cells: 26%
- Potency (Lgr5+ activity): 1.1 µM

Structure (SMILES): CCn1cc(C(=O)O)c(=O)c2c(N)c(F)c(N[C@H]3CC[C@@H](N[C@@H]4C[C@H]4c4ccccc4)CC3)cc21 (relative stereo) [Compound I-28]
- % of Lgr5+ Positive Cells: 40%
- Potency (Lgr5+ activity): 8 µM
- Lgr5 GFP+ progenitor cell proliferation (Lgr5 positive cell count): generates Lgr5 GFP+ progenitor cell proliferation
- enrichment of Lgr5 GFP+ cochlear progenitor cells (percent of Lgr5 positive cells): generates enrichment of Lgr5 GFP+ cochlear progenitor cells

Structure (SMILES): CCn1cc(C(=O)O)c(=O)c2c(N)c(F)c(NCCN[C@@H]3C[C@H]3c3ccccc3)cc21 (relative stereo) [Compound I-29]
- % of Lgr5+ Positive Cells: 38%
- Potency (Lgr5+ activity): 4 µM
- Lgr5 GFP+ progenitor cell proliferation (Lgr5 positive cell count): generates Lgr5 GFP+ progenitor cell proliferation
- enrichment of Lgr5 GFP+ cochlear progenitor cells (percent of Lgr5 positive cells): generates enrichment of Lgr5 GFP+ cochlear progenitor cells

Structure (SMILES): CCn1cc(C#N)c(=O)c2c(N)c(F)c(N[C@@H]3C[C@H]3c3ccccc3)cc21 (relative stereo) [Compound I-38]
- % of Lgr5+ Positive Cells: 7.5%
- Potency (Lgr5+ activity): 0.123 µM

Structure (SMILES): CCn1cc(C(=O)O)c(=O)c2c(N)c(F)c(NC3CC(N[C@@H]4C[C@H]4c4ccccc4)C3)cc21 (relative stereo) [Compound I-70]
- % of Lgr5+ Positive Cells: 30%
- Potency (Lgr5+ activity): 3.3 µM

Structure (SMILES): CCn1cc(C(=O)O)c(=O)c2c(N)c(F)c(NCCN[C@@H]3C[C@]34CCc3ccccc34)cc21 (relative stereo) [Compound I-81]
- % of Lgr5+ Positive Cells: 65%
- Potency (Lgr5+ activity): 10 µM

Structure (SMILES): CCn1cc(C(=O)O)c(=O)c2c(N)c(F)c(NCCN[C@@H]3C[C@@]34CCc3ccccc34)cc21 (relative stereo) [Compound I-82]
- % of Lgr5+ Positive Cells: 48%
- Potency (Lgr5+ activity): 10 µM

Structure (SMILES): CCn1cc(C(N)=O)c(=O)c2c(N)c(F)c(NCCN[C@H]3C[C@@H]3c3ccccc3)cc21 (relative stereo) [Compound I-83]
- % of Lgr5+ Positive Cells: 12%
- Potency (Lgr5+ activity): 1.1 µM

Structure (SMILES): CCn1cc(C#N)c(=O)c2c(N)c(F)c(NCCN[C@@H]3C[C@H]3c3ccccc3)cc21 (relative stereo) [Compound I-84]
- % of Lgr5+ Positive Cells: 9%
- Potency (Lgr5+ activity): 1.1 µM

Structure (SMILES): Cn1cc(C(=O)O)c(=O)c2c(N)c(F)c(NCCN[C@@H]3C[C@H]3c3ccccc3)cc21 (relative stereo) [Compound I-86]
- % of Lgr5+ Positive Cells: 4%
- Potency (Lgr5+ activity): >30 µM

Structure (SMILES): CCCn1cc(C(=O)O)c(=O)c2c(N)c(F)c(NCCN[C@@H]3C[C@H]3c3ccccc3)cc21 (relative stereo) [Compound I-87]
- % of Lgr5+ Positive Cells: 52%
- Potency (Lgr5+ activity): 3.3 µM

Structure (SMILES): CC(C)n1cc(C(=O)O)c(=O)c2c(N)c(F)c(NCCN[C@@H]3C[C@H]3c3ccccc3)cc21 (relative stereo) [Compound I-88]
- % of Lgr5+ Positive Cells: 32%
- Potency (Lgr5+ activity): 1.1 µM

Structure (SMILES): Nc1c(F)c(NCCN[C@@H]2C[C@H]2c2ccccc2)cc2c1c(=O)c(C(=O)O)cn2C1CC1 (relative stereo) [Compound I-89]
- % of Lgr5+ Positive Cells: 35%
- Potency (Lgr5+ activity): 3.3 µM

Structure (SMILES): CC(C)n1cc(C(=O)O)c(=O)c2c(N)c(F)c(N[C@]3(C)C[C@@H](N[C@@H]4C[C@H]4c4ccccc4)C3)cc21 (relative stereo) [Compound I-93]
- % of Lgr5+ Positive Cells: 8%
- Potency (Lgr5+ activity): >30 µM

Structure (SMILES): CCn1cc(C(=O)O)c(=O)c2c(N)c(F)c(N[C@@H]3C[C@H]3c3ccccc3)cc21 (single isomer, unassigned) [Compound I-20]
- % of Lgr5+ Positive Cells: 42%

Structure (SMILES): CCn1cc(C(=O)O)c(=O)c2cc(F)c(NC3CCCCC3)cc21 [Compound I-1]
- % of Lgr5+ Positive Cells: <5%
- Potency (Lgr5+ activity): >10 µM

Structure (SMILES): CCn1cc(C(=O)O)c(=O)c2c(N)c(F)c(NC3CCOCC3)cc21 [Compound I-8]
- % of Lgr5+ Positive Cells: 21%
- Potency (Lgr5+ activity): 3.3 µM

Structure (SMILES): CCn1cc(C(=O)O)c(=O)c2c(N)c(F)c(NC3CCCC3)cc21 [Compound I-9]
- % of Lgr5+ Positive Cells: 13%
- Potency (Lgr5+ activity): 1.1 µM

Structure (SMILES): CCn1cc(C(=O)O)c(=O)c2c(N)c(F)c(NC3CCc4ccccc43)cc21 (centres unmarked) [Compound I-10]
- % of Lgr5+ Positive Cells: 1%
- Potency (Lgr5+ activity): >10 µM

Structure (SMILES): CCn1cc(C(=O)O)c(=O)c2c(N)c(F)c(NC3Cc4ccccc4C3)cc21 [Compound I-11]
- % of Lgr5+ Positive Cells: 17%
- Potency (Lgr5+ activity): 3.3 µM

Structure (SMILES): CCn1cc(C(=O)O)c(=O)c2c(N)c(F)c(NC3CCC3)cc21 [Compound I-12]
- % of Lgr5+ Positive Cells: 25%
- Potency (Lgr5+ activity): 1.1 µM

Structure (SMILES): CCn1cc(C(=O)O)c(=O)c2c(N)c(F)c(NC3CC3)cc21 [Compound I-15]
- % of Lgr5+ Positive Cells: 30%
- Potency (Lgr5+ activity): 3.3 µM

Structure (SMILES): CCn1cc(C(=O)O)c(=O)c2c(N)c(F)c(Nc3ccccc3)cc21 [Compound I-16]
- % of Lgr5+ Positive Cells: 22%
- Potency (Lgr5+ activity): 1.1 µM

Structure (SMILES): CCn1cc(C(=O)O)c(=O)c2c(N)c(F)c(NCc3ccccc3)cc21 [Compound I-17]
- % of Lgr5+ Positive Cells: 22%
- Potency (Lgr5+ activity): 3.3 µM

Structure (SMILES): CCn1cc(C(=O)O)c(=O)c2c(N)c(F)c(NCCc3ccccc3)cc21 [Compound I-18]
- % of Lgr5+ Positive Cells: 31%
- Potency (Lgr5+ activity): 1.1 µM

Structure (SMILES): CCn1cc(C(=O)O)c(=O)c2c(N)c(F)c(NCCCc3ccccc3)cc21 [Compound I-19]
- % of Lgr5+ Positive Cells: 17%
- Potency (Lgr5+ activity): 0.37 µM

Structure (SMILES): CCn1cc(C(=O)O)c(=O)c2c(N)c(F)c(N[C@@H]3C[C@H]3c3ccccc3)cc21 [Compound I-21]
- % of Lgr5+ Positive Cells: 21%
- Potency (Lgr5+ activity): 3.3 µM

Structure (SMILES): CCn1cc(C(=O)O)c(=O)c2c(N)c(F)c(N[C@H]3C[C@@H]3c3ccccc3)cc21 [Compound I-22]
- % of Lgr5+ Positive Cells: 16%
- Potency (Lgr5+ activity): 1.1 µM

Structure (SMILES): CCn1cc(C(=O)O)c(=O)c2c(N)cc(NCCCc3ccccc3)cc21 [Compound I-57]
- % of Lgr5+ Positive Cells: 1%
- Potency (Lgr5+ activity): 30 µM

Structure (SMILES): CCn1cc(C(=O)O)c(=O)c2c(N)c(F)c(N[C@H]3C[C@H](c4ccccc4)C3)cc21 [Compound I-60]
- % of Lgr5+ Positive Cells: 30%
- Potency (Lgr5+ activity): 0.37 µM

Structure (SMILES): CCn1cc(C(=O)O)c(=O)c2c(N)c(F)c(N[C@H]3C[C@@H](c4ccccc4)C3)cc21 [Compound I-61]
- % of Lgr5+ Positive Cells: 30%
- Potency (Lgr5+ activity): 1.1 µM

Structure (SMILES): CCn1cc(C(=O)O)c(=O)c2c(N)c(F)c(NC3CN(c4ccccc4)C3)cc21 [Compound I-69]
- % of Lgr5+ Positive Cells: 25%
- Potency (Lgr5+ activity): 1.1 µM
